Test results reported in ChEMBL document CHEMBL1201862, “PubChem BioAssay data set” (2004).
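Assay format: 96-well plates, 48-hour exposure. Abbreviation: GI50, concentration required for 50% inhibition of growth.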 The source made the active and inactive calls. No stated cut-off is given here; in the data, active = GI50 up to about 1.1 µM and inactive = higher.

Legend:
Assay in all cases: DTP human tumour cell line panel, 48 h
SW-620 = system: SW-620
HT-29 = system: HT-29
OVCAR-8 = system: OVCAR-8
M14 = system: M14
RXF 393 = system: RXF 393
SN12C = system: SN12C
HCT-116 = system: HCT-116
MCF7 = system: MCF7
A498 = system: A498
SK-MEL-28 = system: SK-MEL-28
LOX IMVI = system: LOX IMVI
TK-10 = system: TK-10
OVCAR-3 = system: OVCAR-3
NCI-H226 = system: NCI-H226
HCT-15 = system: HCT-15
786-0 = system: 786-0
SR = system: SR
HCC 2998 = system: HCC 2998

SMILES	GI50 (SW-620)	GI50 (HT-29)	GI50 (OVCAR-8)	GI50 (M14)	GI50 (RXF 393)	GI50 (SN12C)	GI50 (HCT-116)	GI50 (MCF7)	GI50 (A498)	GI50 (SK-MEL-28)	GI50 (LOX IMVI)	GI50 (TK-10)	GI50 (OVCAR-3)	GI50 (NCI-H226)	GI50 (HCT-15)	GI50 (786-0)	GI50 (SR)	GI50 (HCC 2998)
COc1c(Cl)ccc(Cl)c1-c1nnc(-c2c(Cl)c(Cl)c(Cl)c(Cl)c2-c2nc3cc(C(=O)c4ccccc4)ccc3[nH]2)o1	44.1 µM (inactive)	57.8 µM (inactive)	> 100 µM (inactive)	50.9 µM (inactive)	20.8 µM (inactive)	64.7 µM (inactive)	63.1 µM (inactive)	31.6 µM (inactive)	24.8 µM (inactive)	47.2 µM (inactive)	54.1 µM (inactive)	> 100 µM (inactive)	53.2 µM (inactive)	26.5 µM (inactive)	35.7 µM	73.6 µM (inactive)	25.4 µM (inactive)	
CCOC(=O)c1cc2cc(CSc3ccccc3)ccc2oc1=O	> 100 µM (inactive)	> 100 µM (inactive)	> 100 µM (inactive)	51.5 µM (inactive)	39.4 µM (inactive)	> 100 µM (inactive)	> 100 µM (inactive)	90.2 µM (inactive)		> 100 µM (inactive)	> 100 µM (inactive)	57.9 µM (inactive)	96.6 µM (inactive)	> 100 µM (inactive)	> 100 µM	94.8 µM (inactive)	> 100 µM (inactive)	42.6 µM (inactive)
O=NC1C(Cl)C2CC1C1C(Br)C(Br)CC21 (stereo not given)	> 100 µM (inactive)	> 100 µM (inactive)	> 100 µM (inactive)	> 100 µM (inactive)	> 100 µM (inactive)	> 100 µM (inactive)	> 100 µM (inactive)	> 100 µM (inactive)	> 100 µM (inactive)	> 100 µM (inactive)	> 100 µM (inactive)	> 100 µM (inactive)	> 100 µM (inactive)	> 100 µM (inactive)	> 100 µM	> 100 µM (inactive)	48.9 µM (inactive)	
CC1(C)CN=C(Nc2ccc(F)c(Cl)c2)S1	> 100 µM (inactive)	> 100 µM (inactive)	> 100 µM (inactive)	> 100 µM (inactive)	> 100 µM (inactive)	> 100 µM (inactive)	> 100 µM (inactive)	> 100 µM (inactive)		> 100 µM (inactive)	> 100 µM (inactive)	> 100 µM (inactive)	> 100 µM (inactive)	> 100 µM (inactive)	> 100 µM	> 100 µM (inactive)	> 100 µM (inactive)	> 100 µM (inactive)
CN(Cc1nc2c(N)nc(N)nc2nc1N)c1ccc(C(=O)NC(CCC(=O)O)C(=O)O)cc1 (stereo not given)	0.033 µM (active)	< 0.01 µM (active)	0.0413 µM (active)	0.0615 µM (active)	> 100 µM (inactive)	0.365 µM (active)	< 0.01 µM (active)	0.0596 µM (active)		> 76.4 µM (inactive)	< 0.01 µM (active)	0.752 µM (active)	> 100 µM (inactive)	> 100 µM (inactive)	0.0708 µM	< 0.01 µM (active)	< 0.01 µM (active)	3.65 µM (inactive)
CCOC(=O)C1=C(C)NC(c2ccccc2)=C(C(=O)OCc2ccccc2)C1C#Cc1ccccc1 (stereo not given)	> 100 µM (inactive)		> 100 µM (inactive)	> 100 µM (inactive)	> 100 µM (inactive)	12.4 µM (inactive)	> 100 µM (inactive)	> 100 µM (inactive)	> 100 µM (inactive)		> 100 µM (inactive)	> 100 µM (inactive)	> 100 µM (inactive)	> 100 µM (inactive)	> 100 µM	> 100 µM (inactive)	> 100 µM (inactive)	
